These results are taken from patent US20220313698A1, “MODULATORS OF CYSTIC FIBROSIS TRANSMEMBRANE CONDUCTANCE REGULATOR” (Vertex Pharmaceuticals Incorporated, priority 2019, published 2022).

The assay addresses CFTR-mediated chloride transport (Homo sapiens, UniProt P13569). The experiment in a line: Corrector Assay A - membrane potential dye assay (enteroid cells). As to conditions: for Corrector Assay A % activity: % of chloride transport of triple combination control (1 μM (14S)-dispiro macrocycle + 3 μM tezacaftor + 300 nM ivacaftor); for EC50: read-out: Corrector Assay A EC50, human intestinal enteroid cells, 18-24 h incubation, acute 10 μM forskolin + 300 nM ivacaftor.

By EC50 is commonly meant the concentration at which the effect is half-maximal. As for `CC(C)(C)c1ccc2c(n1)N1C[C@@H](CC[C@@H](c3cccc(N4CCOCC4)n3)Nc3cccc(n3)S(=O)(=O)NC2=O)CC1(C)C` [Compound 190], the “Corrector Assay A % activity” value is on record as “++ (++ is 30-60%)” and the concentration for a half-maximal effect (EC50) was under 1000 nM.
For `CC(C)(C)c1ccc2c(n1)N1C[C@@H](CC[C@H](c3cccc(N4CCOCC4)n3)Nc3cccc(n3)S(=O)(=O)NC2=O)CC1(C)C` [Compound 191] the same measures were “+++ (+++ is >60%)” and under 1000 nM.
As for `CC1(C)C[C@@H]2CC[C@@H](c3ccccn3)Nc3cccc(n3)S(=O)(=O)NC(=O)c3ccc(C#N)nc3N1C2` [Compound 192], the “Corrector Assay A % activity” value was “+ (+ is <30%)” and the EC50 is 1000 to 3000 nM.
As for `CC1(C)C[C@@H]2CC[C@H](c3ccccn3)Nc3cccc(n3)S(=O)(=O)NC(=O)c3ccc(C#N)nc3N1C2` [Compound 193, (14S,17R)-12,12-dimethyl-2,2,4-trioxo-17-(pyridin-2-yl)-2λ^6-thia-3,9,11,18,23-pentaazatetracyclo[17.3.1.111,14.05,10]tetracosa-1(22),5,7,9,19(23),20-hexaene-8-carbonitrile], the “Corrector Assay A % activity” value is reported as “+++ (+++ is >60%)” and the EC50 was over 3000 nM.
As for `CN1CCN(c2cccc([C@@H]3CC[C@@H]4CN(c5nc(C(C)(C)C)ccc5C(=O)NS(=O)(=O)c5cccc(n5)N3)C(C)(C)C4)n2)CC1` [Compound 194], the “Corrector Assay A % activity” value was “++ (++ is 30-60%)” and the 50% effective concentration (EC50) is under 1000 nM.
For `CN1CCN(c2cccc([C@H]3CC[C@@H]4CN(c5nc(C(C)(C)C)ccc5C(=O)NS(=O)(=O)c5cccc(n5)N3)C(C)(C)C4)n2)CC1` [Compound 195, (14S,17R)-8-tert-butyl-12,12-dimethyl-17-[6-(4-methylpiperazin-1-yl)pyridin-2-yl]-2λ^6-thia-3,9,11,18,23-pentaazatetracyclo[17.3.1.111,14.05,10]tetracosa-1(22),5,7,9,19(23),20-hexaene-2,2,4-trione] the same measures were “+++ (+++ is >60%)” and under 1000 nM.
Regarding `CC(C)(C)c1ccc2c(n1)N1C[C@@H](CCC(c3ccc(CN)cn3)Nc3cccc(n3)S(=O)(=O)NC2=O)CC1(C)C` (stereo partly drawn) [Compound 196], the “Corrector Assay A % activity” value is recorded as “+++ (+++ is >60%)” and the 50% effective concentration (EC50) was under 1000 nM.
With `CC(C)(C)c1ccc2c(n1)N1C[C@@H](CCC(c3ccc(N4CCOCC4)cn3)Nc3cccc(n3)S(=O)(=O)NC2=O)CC1(C)C` (stereo partly drawn) [Compound 198], the “Corrector Assay A % activity” value is “+++ (+++ is >60%)” and the EC50 is under 1000 nM.
With `CC(C)(C)c1ccc2c(n1)N1C[C@@H](CCC(c3ccc(N4CCOCC4)cn3)Nc3cccc(n3)S(=O)(=O)NC2=O)CC1(C)C` (stereo partly drawn) [Compound 199], the “Corrector Assay A % activity” value is listed as “+++ (+++ is >60%)” and the concentration giving a half-maximal response (EC50) was under 1000 nM.
In the same order, the values of `CN1CCN(c2ccc(C3CC[C@@H]4CN(c5nc(C(C)(C)C)ccc5C(=O)NS(=O)(=O)c5cccc(n5)N3)C(C)(C)C4)nc2)CC1` (stereo partly drawn) [Compound 200] are “+++ (+++ is >60%)” and under 1000 nM.
In the same order, the values of `CN1CCN(c2ccc(C3CC[C@@H]4CN(c5nc(C(C)(C)C)ccc5C(=O)NS(=O)(=O)c5cccc(n5)N3)C(C)(C)C4)nc2)CC1` (stereo partly drawn) [Compound 201, (14S)-8-tert-butyl-12,12-dimethyl-17-[5-(4-methylpiperazin-1-yl)pyridin-2-yl]-2λ^6-thia-3,9,11,18,23-pentaazatetracyclo[17.3.1.111,14.05,10]tetracosa-1(23),5(10),6,8,19,21-hexaene-2,2,4-trione] are “+++ (+++ is >60%)” and under 1000 nM.
In the same order, the values of `CC(C)(C)c1ccc2c(n1)N1C[C@@H](CC[C@@H](c3cccc(CN)n3)Nc3cccc(n3)S(=O)(=O)NC2=O)CC1(C)C` [Compound 202] are “++ (++ is 30-60%)” and under 1000 nM.
Turning to `CC(C)(C)c1ccc2c(n1)N1C[C@@H](CC[C@H](c3cccc(CN)n3)Nc3cccc(n3)S(=O)(=O)NC2=O)CC1(C)C` [Compound 203, (14S,17R)-17-[6-(aminomethyl)pyridin-2-yl]-8-tert-butyl-12,12-dimethyl-2λ^6-thia-3,9,11,18,23-pentaazatetracyclo[17.3.1.111,14.05,10]tetracosa-1(22),5,7,9,19(23),20-hexaene-2,2,4-trione], the “Corrector Assay A % activity” value is “+++ (+++ is >60%)” and the EC50 was under 1000 nM.
For `CC(C)(C)c1ccc2c(n1)N1C[C@@H](CCC(c3ccc(C#N)cn3)Nc3cccc(n3)S(=O)(=O)NC2=O)CC1(C)C` (stereo partly drawn) [Compound 204] the same measures were “+++ (+++ is >60%)” and under 1000 nM.
For `CC(C)(C)c1ccc2c(n1)N1C[C@@H](CC[C@@H](c3cccc(C#N)n3)Nc3cccc(n3)S(=O)(=O)NC2=O)CC1(C)C` [Compound 210] the same measures were “++ (++ is 30-60%)” and under 1000 nM.
In the same order, the values of `CC(C)(C)c1ccc2c(n1)N1C[C@@H](CC[C@H](c3cccc(C#N)n3)Nc3cccc(n3)S(=O)(=O)NC2=O)CC1(C)C` [Compound 211, 6-[(14S,17R)-8-tert-Butyl-12,12-dimethyl-2,2,4-trioxo-2λ^6-thia-3,9,11,18,23-pentaazatetracyclo[17.3.1.111,14.05,10]tetracosa-1(22),5,7,9,19(23),20-hexaen-17-yl]pyridine-2-carbonitrile] are “+++ (+++ is >60%)” and under 1000 nM.
In the case of `CC(C)(C)c1ccc2c(n1)N1C[C@@H](CCC(C3CCN(c4ncccn4)CC3)Nc3cccc(n3)S(=O)(=O)NC2=O)CC1(C)C` (stereo partly drawn) [Compound 218, (14S)-8-tert-butyl-12,12-dimethyl-17-[1-(pyrimidin-2-yl)piperidin-4-yl]-2λ^6-thia-3,9,11,18,23-pentaazatetracyclo[17.3.1.111,14.05,10]tetracosa-1(23),5(10),6,8,19,21-hexaene-2,2,4-trione], the “Corrector Assay A % activity” value was “++ (++ is 30-60%)” and the concentration giving a half-maximal response (EC50) was under 1000 nM.
In the same order, the values of `COCCN1CCC2(CC1)CC(NC(=O)[C@@H]1CC[C@@H]3CN(c4nc(C(C)(C)C)ccc4C(=O)NS(=O)(=O)c4cccc(n4)N1)C(C)(C)C3)C2` [Compound 221] are “+ (+ is <30%)” and over 3000 nM.
`CC(C)(C)c1ccc2c(n1)N1C[C@@H](CC[C@@H](C(=O)NC3CC4(CCNCC4)C3)Nc3cccc(n3)S(=O)(=O)NC2=O)CC1(C)C` [Compound 223]: the “Corrector Assay A % activity” value was “+ (+ is <30%)”.
For the compound `CC(C)(C)OC(=O)N1CCC2(CC1)CC(NC(=O)[C@@H]1CC[C@@H]3CN(c4nc(C(C)(C)C)ccc4C(=O)NS(=O)(=O)c4cccc(n4)N1)C(C)(C)C3)C2` [Compound 227], the “Corrector Assay A % activity” value is listed as “+ (+ is <30%)” and the 50% effective concentration (EC50) was in the range of 1000 to 3000 nM.
In the same order, the values of `CC(=O)N1CCC(C2CC[C@@H]3CN(c4nc(C(C)(C)C)ccc4C(=O)NS(=O)(=O)c4cccc(n4)N2)C(C)(C)C3)CC1` (stereo partly drawn) [Compound 228, (14S)-17-(1-Acetylpiperidin-4-yl)-8-tert-butyl-12,12-dimethyl-2λ^6-thia-3,9,11,18,23-pentaazatetracyclo[17.3.1.111,14.05,10]tetracosa-1(23),5(10),6,8,19,21-hexaene-2,2,4-trione] are “++ (++ is 30-60%)” and under 1000 nM.
In the same order, the values of `CN(C)CC(=O)N1CCC(C2CC[C@@H]3CN(c4nc(C(C)(C)C)ccc4C(=O)NS(=O)(=O)c4cccc(n4)N2)C(C)(C)C3)CC1` (stereo partly drawn) [Compound 236, (14S)-8-tert-butyl-17-{1-[2-(dimethylamino)acetyl]piperidin-4-yl}-12,12-dimethyl-2λ^6-thia-3,9,11,18,23-pentaazatetracyclo[17.3.1.111,14.05,10]tetracosa-1(23),5(10),6,8,19,21-hexaene-2,2,4-trione] are “++ (++ is 30-60%)” and 1000 to 3000 nM.
On to `CC(C)(C)c1ccc2c(n1)N1C[C@@H](CCC(C3CCN(CCC(F)(F)F)CC3)Nc3cccc(n3)S(=O)(=O)NC2=O)CC1(C)C` (stereo partly drawn) [Compound 238, (14S)-8-tert-butyl-12,12-dimethyl-17-[1-(3,3,3-trifluoropropyl)piperidin-4-yl]-2λ^6-thia-3,9,11,18,23-pentaazatetracyclo[17.3.1.111,14.05,10]tetracosa-1(23),5(10),6,8,19,21-hexaene-2,2,4-trione], for which the “Corrector Assay A % activity” value is reported as “++ (++ is 30-60%)” and the 50% effective concentration (EC50) was under 1000 nM.
For `CC1(C)C[C@@H]2CC[C@H](c3ccccn3)Nc3cccc(n3)S(=O)(=O)NC(=O)c3ccc(Br)nc3N1C2` [Compound 246, (14S,17R)-8-bromo-12,12-dimethyl-17-(pyridin-2-yl)-2λ^6-thia-3,9,11,18,23-pentaazatetracyclo[17.3.1.111,14.05,10]tetracosa-1(22),5,7,9,19(23),20-hexaene-2,2,4-trione] the same measures were “++ (++ is 30-60%)” and under 1000 nM.
For `CC1(C)C[C@@H]2CC[C@@H](c3ccccn3)Nc3cccc(n3)S(=O)(=O)NC(=O)c3ccc(Br)nc3N1C2` [Compound 247, (14S,17S)-8-bromo-12,12-dimethyl-17-(pyridin-2-yl)-2λ^6-thia-3,9,11,18,23-pentaazatetracyclo[17.3.1.111,14.05,10]tetracosa-1(22),5,7,9,19(23),20-hexaene-2,2,4-trione], the “Corrector Assay A % activity” value is reported as “+ (+ is <30%)” and the EC50 is under 1000 nM.
Regarding `CN1c2cccc(n2)S(=O)(=O)NC(=O)c2ccc(C(C)(C)C)nc2N2C[C@@H](CC[C@H]1c1ccccc1)CC2(C)C` [Compound 262], the “Corrector Assay A % activity” value was “+++ (+++ is >60%)” and the concentration giving a half-maximal response (EC50) was under 1000 nM.
